Data from patent US7473669B2, “Substituted 4,5-dihydro-1,2,4-triazin-6-ones, 1,2,4-triazin-6-ones, and their use as fungicides” (priority 2005, dated 2009).
Where two headings read alike, the source gives them in different places.

Legend:
Assay type in all cases: in vivo
[1] = test system: Pyricularia oryzae; assay: whole plant or invertebrate; settings: 24 h, read-out: PYRIOR percent control rating
[2] = test system: Phytophthora infestans; assay: whole plant or invertebrate; settings: in Solanum lycopersicum, 24 h
[3] = test system: Leptosphaeria nodorum; assay: Glume Blotch of Wheat greenhouse one-day protectant test; settings: Parastagonospora nodorum, 24 h, read-out: LEPTNO percent control rating
[4] = test system: Colletotricum lagenarium; assay: Cucumber Anthracnose greenhouse one-day protectant test; settings: Cucumis sativus, 24 h, read-out: COLLLA percent control rating
[5] = test system: Puccinia recondita tritici; assay: Leaf Rust of Wheat greenhouse one-day protectant test; settings: 24 h, read-out: PUCCRT percent control rating
[6] = test system: Erysiphe cichoracaerum; assay: Cucumber Powdery Mildew greenhouse one-day protectant test; settings: 24 h, read-out: ERYSCI percent control rating
[7] = read-out: PHYTIN percent control rating, tomato plants, one-day protectant test, 200 ppm application rate
[8] = wheat plants, one-day protectant test, 200 ppm application rate
[9] = cucumber plants, one-day protectant test, 200 ppm application rate

Row | Compound | pest or weed control at 200 ppm [1] [%] | pest or weed control at 200 ppm [2, 7] [%] | pest or weed control at 200 ppm [3, 8] [%] | pest or weed control at 200 ppm [4, 9] [%] | pest or weed control at 200 ppm [5, 8] [%] | pest or weed control at 200 ppm [6, 9] [%] | pest or weed control at 200 ppm ([2]; read-out: PHYTIN percent control rating) [%] | pest or weed control at 200 ppm [3] [%] | pest or weed control at 200 ppm [4] [%] | pest or weed control at 200 ppm [5] [%] | pest or weed control at 200 ppm [6] [%]
1 | CS(=O)(=O)OCCN1N=C(c2ccc(Cl)nc2)NCC1=O [Compound 1] | 50 to 79 | 0 to 49 | 0 to 49 | 0 to 49 | 0 to 49 | 0 to 49 |  |  |  |  | 
2 | Cc1cc(C)cc(C2=NN(CCO)C(=O)CN2)c1 [Compound 2] | 80 to 100 | 0 to 49 | 0 to 49 | 0 to 49 | 0 to 49 | 0 to 49 |  |  |  |  | 
3 | Cc1cc(C)cc(C2=NN(CCOC(=O)Nc3ccc4c(c3)OCO4)C(=O)CN2)c1 [Compound 3] | 80 to 100 | 0 to 49 | 50 to 79 | 50 to 79 | 80 to 100 | 0 to 49 |  |  |  |  | 
4 | O=C1CNC(c2ccccc2)=NN1CCO [Compound 4] | 0 to 49 | 0 to 49 | 0 to 49 | 0 to 49 | 0 to 49 | 0 to 49 |  |  |  |  | 
5 | Cc1cc(C)cc(C2=NN(Cc3ccccn3)C(=O)CN2)c1 [Compound 5] | 0 to 49 | 0 to 49 | 80 to 100 | 50 to 79 | 0 to 49 | 0 to 49 |  |  |  |  | 
6 | O=C1CNC(c2cc(Cl)cc(Cl)c2)=NN1Cc1ccccn1 [Compound 6] | 80 to 100 | 0 to 49 | 80 to 100 | 50 to 79 | 80 to 100 | 0 to 49 |  |  |  |  | 
7 | O=C1CNC(c2cc(Cl)cc(Cl)c2)=NN1CCO [Compound 7] | 0 to 49 | 0 to 49 | 50 to 79 | 0 to 49 | 50 to 79 | 0 to 49 |  |  |  |  | 
8 | O=C1CNC(c2cc(Cl)cc(Cl)c2)=NN1CO [Compound 8] | 0 to 49 | 0 to 49 | 50 to 79 | 0 to 49 | 0 to 49 | 0 to 49 |  |  |  |  | 
9 | O=C1CNC(c2ccc(Cl)c(Cl)c2)=NN1CO [Compound 9] | 0 to 49 | 0 to 49 | 80 to 100 | 0 to 49 | 50 to 79 | 0 to 49 |  |  |  |  | 
10 | O=C1CNC(c2ccc(Cl)c(Cl)c2)=NN1C(=O)C(F)(F)F [Compound 10] | 80 to 100 | 0 to 49 | 50 to 79 | 50 to 79 | 0 to 49 | 0 to 49 |  |  |  |  | 
11 | O=C1CNC(c2cc(Cl)cc(Cl)c2)=NN1C(=O)C(F)(F)F [Compound 11] | 50 to 79 | 0 to 49 | 50 to 79 | 50 to 79 | 0 to 49 | 0 to 49 |  |  |  |  | 
12 | CC(=O)OCN1N=C(c2ccc(Cl)c(Cl)c2)NCC1=O [Compound 14] | 0 to 49 | 0 to 49 | 0 to 49 | 0 to 49 | 50 to 79 | 0 to 49 |  |  |  |  | 
13 | O=C1CNC(c2cc(Cl)cc(Cl)c2)=NN1CN1CCOCC1 [Compound 15] | 80 to 100 | 0 to 49 | 50 to 79 | 0 to 49 | 0 to 49 | 0 to 49 |  |  |  |  | 
14 | CCCCN1N=C(c2ccc(Oc3cccnc3)cc2)NCC1=O [Compound 16] | 0 to 49 | 0 to 49 | 0 to 49 | 0 to 49 | 80 to 100 | 0 to 49 |  |  |  |  | 
15 | O=C1CNC(c2cccc(OCc3ccccc3)c2)=NN1CC(F)(F)F [Compound 17] | 80 to 100 | 0 to 49 | 80 to 100 | 80 to 100 | 80 to 100 | 0 to 49 |  |  |  |  | 
16 | N#CCCN1N=C(c2cccc(OCc3ccccc3)c2)NCC1=O [Compound 18] | 50 to 79 | 0 to 49 | 50 to 79 | 50 to 79 | 80 to 100 | 0 to 49 |  |  |  |  | 
17 | O=C1CNC(c2cccc(OCc3ccccc3)c2)=NN1CCF [Compound 19] | 50 to 79 | 0 to 49 | 50 to 79 | 0 to 49 | 80 to 100 | 0 to 49 |  |  |  |  | 
18 | O=C1CNC(c2cccc(OCc3ccccc3)c2)=NN1Cc1ccccc1 [Compound 20] | 80 to 100 | 0 to 49 | 50 to 79 | 0 to 49 | 80 to 100 | 0 to 49 |  |  |  |  | 
19 | O=C1CNC(c2cccc(OCc3ccccc3)c2)=NN1c1cccc(Br)c1 [Compound 21] | 80 to 100 | 0 to 49 | 50 to 79 | 0 to 49 | 50 to 79 | 0 to 49 |  |  |  |  | 
20 | O=C1CNC(c2cccc(O)c2)=NN1CC(F)(F)F [Compound 22] | 0 to 49 | 0 to 49 | 0 to 49 | 0 to 49 | 50 to 79 | 0 to 49 |  |  |  |  | 
21 | O=C1CNC(c2cccc(OS(=O)(=O)C(F)(F)F)c2)=NN1CC(F)(F)F [Compound 23] | 80 to 100 | 0 to 49 | 50 to 79 | 0 to 49 | 50 to 79 | 0 to 49 |  |  |  |  | 
22 | O=C1CNC(c2cccc(Oc3cc(C(F)(F)F)cc(C(F)(F)F)n3)c2)=NN1CC(F)(F)F [Compound 24] | 0 to 49 | 0 to 49 | 80 to 100 | 0 to 49 | 80 to 100 | 0 to 49 |  |  |  |  | 
23 | O=C(Nc1c(Cl)cccc1Cl)Oc1cccc(C2=NN(CC(F)(F)F)C(=O)CN2)c1 [Compound 25] | 0 to 49 |  |  |  |  |  | 0 to 49 | 0 to 49 | 0 to 49 | 0 to 49 | 0 to 49
24 | O=C1CNC(c2cc(C=Cc3ccccc3)cc(-c3ccsc3)c2)=NN1CC(F)(F)F [Compound 26] | 0 to 49 | 0 to 49 | 50 to 79 | 0 to 49 | 0 to 49 | 0 to 49 |  |  |  |  | 
25 | O=C1C(SC2CCCCC2)NC(c2ccc(F)c(-c3ccccc3)c2)=NN1CC(F)(F)F (stereo not shown) [Compound 48] | 80 to 100 |  | 80 to 100 |  | 80 to 100 | 0 to 49 |  |  |  |  | 
